This is an account of results in publication PMC6100415, “Hepatic Metabolism of Sakuranetin and Its Modulating Effects on Cytochrome P450s and UDP-Glucuronosyltransferases” (Molecules : A Journal of Synthetic Chemistry and Natural …, 2018).

Common to all, as to assay type: in vitro ADME
In one data set the target is CYP2D6 (Homo sapiens, UniProt P10635). Put plainly: CYP inhibition in human liver microsomes, dextromethorphan O-demethylation (DEXOD). To be noted: pH 7.4, probe dextromethorphan (O-demethylation, DEXOD). The text has this: (§1) The DAD was set at 280 nm.
Chain of CYP2D6 (P10635 whole entry): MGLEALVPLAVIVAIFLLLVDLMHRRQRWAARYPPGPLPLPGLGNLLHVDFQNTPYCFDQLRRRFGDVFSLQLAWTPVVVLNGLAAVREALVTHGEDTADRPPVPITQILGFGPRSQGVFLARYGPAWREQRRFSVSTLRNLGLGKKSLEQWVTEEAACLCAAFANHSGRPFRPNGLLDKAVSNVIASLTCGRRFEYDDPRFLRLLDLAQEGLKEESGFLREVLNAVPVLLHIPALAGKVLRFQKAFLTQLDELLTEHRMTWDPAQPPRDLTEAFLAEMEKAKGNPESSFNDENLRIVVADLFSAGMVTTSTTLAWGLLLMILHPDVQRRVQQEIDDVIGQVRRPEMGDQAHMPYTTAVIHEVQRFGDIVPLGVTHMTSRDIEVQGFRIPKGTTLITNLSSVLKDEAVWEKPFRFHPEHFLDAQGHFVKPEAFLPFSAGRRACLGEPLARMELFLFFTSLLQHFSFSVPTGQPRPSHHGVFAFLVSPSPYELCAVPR
The next data set concerns the target CYP3A4 (Homo sapiens, UniProt P08684). Put plainly: CYP inhibition in human liver microsomes, testosterone 6β-hydroxylation (TSTHY). Conditions: pH 7.4, probe testosterone (6β-hydroxylation, TSTHY).
Excerpt: as §1

In a further data set the target is T1, UGT1A1 (Homo sapiens, UniProt P22309).
T1 construct: The typical incubation mixture contained human liver microsomes (0.5 mg/mL) along with SKN (10 μM); tissue BD Gentest; host or cells: human liver microsomes
T1 sequence (P22309 26-533): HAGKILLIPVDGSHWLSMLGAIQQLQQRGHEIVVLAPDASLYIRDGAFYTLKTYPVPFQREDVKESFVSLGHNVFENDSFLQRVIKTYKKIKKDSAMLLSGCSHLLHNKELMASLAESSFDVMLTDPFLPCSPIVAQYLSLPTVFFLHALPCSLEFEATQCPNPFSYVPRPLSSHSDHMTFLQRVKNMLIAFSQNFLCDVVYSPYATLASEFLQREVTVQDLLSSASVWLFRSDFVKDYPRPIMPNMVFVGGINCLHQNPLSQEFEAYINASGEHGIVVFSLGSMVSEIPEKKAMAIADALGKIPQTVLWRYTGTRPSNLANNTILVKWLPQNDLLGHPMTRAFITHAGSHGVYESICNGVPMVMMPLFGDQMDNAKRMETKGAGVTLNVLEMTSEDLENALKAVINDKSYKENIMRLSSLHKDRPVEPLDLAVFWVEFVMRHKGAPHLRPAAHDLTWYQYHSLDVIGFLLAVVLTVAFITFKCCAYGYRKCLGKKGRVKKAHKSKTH
Put plainly: UGT inhibition in human liver microsomes, 17β-estradiol 3-O-glucuronidation (ESG). To be noted: pH 7.4, probe 17β-estradiol (200 μM). On the procedure: (§2) The formation of a glucuronide conjugate from an isozyme-specific substrate (200 μM, Table 5) was examined to determine UGT activity levels in human liver microsomes. The typical incubation mixture contained human liver microsomes (0.5 mg/mL) along with SKN (10 μM), and MgCl2 (10 mM) in 50 mM Tris-HCl buffer (pH 7.4). The metabolic reaction was initiated by adding UPDGA (2 mM) and stopped by adding an equal volume of ice-cold methanol. […] The conditions used for the operation and analysis of the HPLC-DAD and LC-ESI-MS are provided in the Supplementary Materials and Table S3.
(§3) The solvent flow rate was set at 0.2 mL/min, and the column temperature was set at 35 °C. The LTQ instrument was operated in negative ion electron spray mode at an ion spray voltage of −4.2 kV and a source temperature of 275 °C. The sheath gas flow rate was 35 arb, and the aux gas flow rate was 5 arb. The MS conditions used to detect glucuronides via selected ion monitoring scan mode are summarized in Supplementary Materials Table S3.

In the next data set the target is T2, UGT1A3 (Homo sapiens, UniProt P35503).
T2 construct: The typical incubation mixture contained human liver microsomes (0.5 mg/mL) along with SKN (10 μM); tissue BD Gentest; host or cells: human liver microsomes
T2 sequence (P35503 29-534): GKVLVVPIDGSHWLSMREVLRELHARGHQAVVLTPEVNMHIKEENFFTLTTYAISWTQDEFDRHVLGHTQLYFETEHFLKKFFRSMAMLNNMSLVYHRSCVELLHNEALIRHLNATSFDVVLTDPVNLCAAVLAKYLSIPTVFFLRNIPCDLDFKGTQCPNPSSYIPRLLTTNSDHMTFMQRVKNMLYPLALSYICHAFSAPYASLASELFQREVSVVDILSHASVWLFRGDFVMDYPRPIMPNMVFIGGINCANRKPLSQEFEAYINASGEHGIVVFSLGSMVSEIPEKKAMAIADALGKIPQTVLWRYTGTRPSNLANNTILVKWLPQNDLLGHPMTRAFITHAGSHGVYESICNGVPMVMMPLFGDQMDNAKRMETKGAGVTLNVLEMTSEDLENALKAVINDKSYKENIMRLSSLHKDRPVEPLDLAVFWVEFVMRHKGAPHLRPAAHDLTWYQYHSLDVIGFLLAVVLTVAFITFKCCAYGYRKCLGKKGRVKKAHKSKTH
Put plainly: UGT inhibition in human liver microsomes, chenodeoxycholic acid 24-glucuronidation (CDCAG). Conditions: pH 7.4, probe chenodeoxycholic acid (200 μM). On the procedure: as §2, §3

The target of a further data set is T3, UGT1A4 (Homo sapiens, UniProt P22310).
T3 construct: The typical incubation mixture contained human liver microsomes (0.5 mg/mL) along with SKN (10 μM); tissue BD Gentest; host or cells: human liver microsomes
T3 sequence (P22310 29-534): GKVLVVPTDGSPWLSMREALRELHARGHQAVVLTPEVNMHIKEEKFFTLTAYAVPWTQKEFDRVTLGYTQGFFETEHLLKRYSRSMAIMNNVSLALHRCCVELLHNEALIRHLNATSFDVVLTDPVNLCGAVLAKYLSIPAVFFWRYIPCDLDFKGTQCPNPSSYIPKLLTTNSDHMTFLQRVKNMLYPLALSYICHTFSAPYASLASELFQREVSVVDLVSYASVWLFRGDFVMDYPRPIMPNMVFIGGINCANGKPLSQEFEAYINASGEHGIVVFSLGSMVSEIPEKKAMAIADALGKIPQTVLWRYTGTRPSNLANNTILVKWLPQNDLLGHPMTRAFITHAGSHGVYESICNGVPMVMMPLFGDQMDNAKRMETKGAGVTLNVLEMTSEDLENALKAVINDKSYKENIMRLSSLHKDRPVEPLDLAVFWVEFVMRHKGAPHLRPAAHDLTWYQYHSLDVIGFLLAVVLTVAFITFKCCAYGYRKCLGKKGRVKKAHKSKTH
Put plainly: UGT inhibition in human liver microsomes, trifluoperazine N-glucuronidation (TFPG). Conditions: pH 7.4, probe trifluoperazine (200 μM). On the procedure: as §2, §3

Setting [1] is: liver microsomes, 200 μM, SKN 10 μM, 15 min pre-incubation, read-out: % Inhibition in Pre-Incubation.
[2] abbreviates: liver microsomes, 200 μM, SKN 10 μM, human liver microsomes, read-out: % Inhibition in Co-Incubation.
Where [3] appears, read: SKN 10 μM, 15 min pre-incubation, read-out: % Inhibition in Pre-Incubation.
Setting [4] is: SKN 10 μM, read-out: % Inhibition in Co-Incubation.
[5] abbreviates: human liver microsomes, 200 µM, inhibitor 10 M [sic], human liver microsomes 0.5 mg/mL, read-out: Inhibition (%).
Setting [6] is: inhibitor 10 µM, human liver microsomes 0.5 mg/mL, read-out: Inhibition (%).

Where two headings read alike, the source gives them in different places.

Chain of CYP3A4 (P08684 whole entry): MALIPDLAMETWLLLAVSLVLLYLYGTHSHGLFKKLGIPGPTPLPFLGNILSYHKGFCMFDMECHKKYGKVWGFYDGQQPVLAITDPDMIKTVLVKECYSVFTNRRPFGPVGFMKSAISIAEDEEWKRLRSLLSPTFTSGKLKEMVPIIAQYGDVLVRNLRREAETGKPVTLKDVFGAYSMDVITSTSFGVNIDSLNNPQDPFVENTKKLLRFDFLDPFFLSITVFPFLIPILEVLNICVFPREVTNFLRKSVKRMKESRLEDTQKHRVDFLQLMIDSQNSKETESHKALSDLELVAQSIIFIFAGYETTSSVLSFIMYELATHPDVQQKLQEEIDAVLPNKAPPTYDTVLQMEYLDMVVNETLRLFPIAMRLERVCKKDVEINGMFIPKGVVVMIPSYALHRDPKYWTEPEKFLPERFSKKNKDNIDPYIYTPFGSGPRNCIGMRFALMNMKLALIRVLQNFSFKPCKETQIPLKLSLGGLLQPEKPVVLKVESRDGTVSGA

As for `COc1cc(O)c2c(c1)OC(c1ccc(O)cc1)CC2=O` (racemic) [SKN, (+/−) 7-O-methylnaringenin], the inhibition at 60 min, 10 µM was 3.5 ± 2.6% at CYP2D6 (setting [1]), -0.6 ± 3.1% at CYP2D6 (setting [2]), 12.6 ± 2.8% on CYP3A4 (setting [1]) and 15.6 ± 0.6% at CYP3A4 (setting [2]). The inhibition at 10 μM at UGT1A1 (setting [3]) was 1.5 ± 2.1%; at UGT1A1 (setting [4]), 0.4 ± 0.5%; at UGT1A3 (setting [3]), 0.8 ± 0.2%; at UGT1A3 (setting [4]), -0.6 ± 0.9%; at UGT1A4 (setting [3]), 8.7 ± 1.4%; on UGT1A4 (setting [4]), 15.3 ± 3.8%.

On to `O=C1C[C@@H](c2ccc(O)c(O)c2)Oc2cc(O)cc(O)c21` [Eriodictyol, 3′-hydroxynaringenin], for which the figures for the inhibition at 60 min, 10 µM at CYP2D6 (setting [5]) and on CYP3A4 (setting [5]) were 5.6 ± 3.6% and 3.2 ± 0.7%, respectively. In addition, the inhibition at 10 μM came to 20.8 ± 3.4% on UGT1A1 (setting [6]), 15.7 ± 2.9% on UGT1A3 (setting [6]) and 13.7 ± 3.8% at UGT1A4 (setting [6]).

In the case of `O=C1C[C@@H](c2ccc(O)cc2)Oc2cc(O)cc(O)c21` [Naringenin], the inhibition at 60 min, 10 µM on CYP2D6 (setting [5]) was 11.9 ± 1.4%; at CYP3A4 (setting [5]) it was 39.6 ± 2.2%. For the same molecule, the inhibition at 10 μM is 10.8 ± 3% at UGT1A1 (setting [6]), 2 ± 0.9% on UGT1A3 (setting [6]) and 9.6 ± 3.1% on UGT1A4 (setting [6]).
